# Measured values as given in patent US12239645B2, “Targeted dosing for the treatment of complement mediated disorders” (Achillion Pharmaceuticals, Inc., priority 2018, dated 2025).
# Read-outs that look alike come from different tables or passages of the source.
# System: complement alternative pathway (AP) activity
# Assay: MAD study: ex vivo serum AP hemolysis activity and PK-PD analysis
# Assay type: in vivo, human
# Settings: for minimum AP activity following dosing: Days 7 and 14
# Procedure: Ex vivo serum AP hemolysis assays were conducted in 96-well microtiter plates divided into two parts, one for hemolysis and the other for serum background color subtraction. Briefly, a suspension of rabbit red blood cells (RBCs) was centrifuged at 800×g at 4° C. for 3 minutes and the supernatant was removed to get rid of the RBC debris. The RBC cell pellet was re-suspended gently with pre-chilled gelatin veronal buffer (GVB0) containing 10 mM MgEGTA to a density of 5×10^8 cells/mL. Other controls including buffer, spontaneous rabbit RBC lysis, 100% RBC lysis (in water), and normal serum control were set up alongside the test samples as well. Serum was placed in a 37° C. water-bath until mostly thawed and immediately transferred to ice bath. 20% serum was prepared with GVB0-MgEGTA buffer and kept at ice bath before testing. Reactions were carried out in a 96 well plate by mixing 50 μl of 20% serum with equal volume of GVB0-MgEGTA buffer and then quickly adding 20 μl of RBC suspension. The plate was shaken on a microtiter plate shaker for 5 seconds and then incubated at 37° C. for 30 minutes. Halfway during the incubation period, the plate was shaken for another 5 seconds as described above. At the end of the incubation, the plate was centrifuged at 800×g at 4° C. for 3 minutes to pellet the un-lysed rabbit RBCs. 80 μl of supernatant was removed carefully from all wells and transferred to a clear flat-bottom microtiter plate for the measurement of optical absorbance at 405 nm (A405) in a Molecular Devices Spectramax Plus plate reader. AP hemolysis in each well was calculated relative to the activity of the NHS reference sample formulas as follows: Hemolysis (%)=((Hm−Bk)−(Sp−Bf))/((NH−BkNH)−(Sp−Bf))×100%
# where Hm=A405 in the hemolysis well, Bk=A405 in the corresponding background well, Sp=mean A405 in the spontaneous hemolysis wells, Bf=mean A405 in the buffer alone wells, NH=mean A405 in the reference NHS wells, and BkNH=mean A405 in the corresponding background wells.
# The PK-PD relationship was evaluated using time-matched plasma Compound 1 concentrations and serum AP inhibition values by non-linear regression with GraphPad Prism (La Jolla, CA) using the following two models: • 1. The simple Emax model to determine the 50% effective concentration (EC50): Y=E0+Emax×X/(EC50+X) where X=plasma Compound 1 concentration, Y=percent inhibition in the corresponding serum sample, E0=0% inhibition (pre-dose AP activity), and Emax=100% inhibition. • 2. The four-parameter sigmoidal model to determine EC50 and the 90% effective concentration (EC90): Y=E0+(Emax−E0)/(1+10^((Log EC50−X)×HillSlope)) where X, Y, E0, and Emax are defined as above (Emax model) and HillSlope=the slope factor or Hill slope. Pharmacodynamic and Pharmacokinetic Results AP Activity Measured with AP Hemolysis
# A multiple ascending dose (MAD) study of Compound 1 with two additional single-dose cohorts was also completed. […] Secondary objectives included evaluation of the pharmacokinetic (PK) profile and the relationship between Compound 1 PK and pharmacodynamic (PD) characteristics, that is, the inhibition of complement alternative pathway (AP) activity (PK/PD). In the MAD study, multiple-dose pharmacokinetics and pharmacodynamics of Compound 1 were evaluated in four dose groups administered Compound 1 (40, 80, 120 and 200 mg BID) in the fasted state for 14-days (Table 3). Eight subjects received active drug in each group; eight subjects received placebo in the first dose group (40 mg) and two subjects received placebo in each of the other three dose groups. Two additional cohorts were administered Compound 1 at single doses of 240 mg (fasted subjects) and 120 mg (fed subjects) (Table 3). The two single-dose cohorts each comprised six subjects receiving active drug and two subjects receiving placebo. […]
# [1] = 40 mg BID, Day 14, AP hemolysis
# [2] = 40 mg BID, Days 7 and 14 Combined Analysis, AP hemolysis
# [3] = 80 mg BID, Day 14, AP hemolysis
# [4] = 80 mg BID, Days 7 and 14 Combined Analysis, AP hemolysis
# [5] = 120 mg BID, Day 7, AP hemolysis
# [6] = 120 mg BID, Day 14, AP hemolysis
# [7] = 120 mg BID, Days 7 and 14 Combined Analysis, AP hemolysis
# [8] = 120 mg and 200 mg BID, 14 days, FIG. 13
# [9] = 200 mg BID, Day 7, AP hemolysis
# [10] = 200 mg BID, Day 14, AP hemolysis
# [11] = 200 mg BID, Days 7 and 14 Combined Analysis, AP hemolysis
# [12] = Homo sapiens, sigmoidal model, multiple-dose cohorts, AP hemolysis
compound,measurement,setting,value
"CC(=O)c1nn(CC(=O)N2[C@H](C(=O)Nc3nc(Br)ccc3C)C[C@@]3(C)C[C@@H]23)c2ccc(-c3cnc(C)nc3)cc12 [Compound 1, (1R,3S,5R)-2-(2-(3-acetyl-5-(2-methylpyrimidin-5-yl)-1H-indazol-1-yl)acetyl)-N-(6-bromo-3-methylpyridin-2-yl)-5-methyl-2-azabicyclo[3.1.0]hexane-3-carboxamide]","% AUEC0-12, Mean","40 mg BID, Day 7, AP hemolysis",49.9%
same,"DURATION0-12 (time with AP inhibition 90% or greater), Mean","40 mg BID, Day 7, AP hemolysis",2.0 h
same,"% AUEC0-12, Mean",[1],61.4%
same,"DURATION0-12 (time with AP inhibition 90% or greater), Mean",[1],2.6 h
same,minimum AP activity following dosing,40 mg BID,4.00%
same,"% AUEC0-12, Mean",[2],55.6%
same,"DURATION0-12 (time with AP inhibition 90% or greater), Mean",[2],2.3 h
same,"% AUEC0-12, Mean","80 mg BID, Day 7, AP hemolysis",87.4%
same,"DURATION0-12 (time with AP inhibition 90% or greater), Mean","80 mg BID, Day 7, AP hemolysis",7.3 h
same,"% AUEC0-12, Mean",[3],87.7%
same,"DURATION0-12 (time with AP inhibition 90% or greater), Mean",[3],8.0 h
same,"% AUEC0-12, Mean",[4],87.6%
same,"DURATION0-12 (time with AP inhibition 90% or greater), Mean",[4],7.6 h
same,mean AP activity,"120 mg BID, 0 h to 10 h on Day 7 and 0 h to 12 h on Day 14",below 10%
same,"% AUEC0-12, Mean",[5],97.5%
same,"DURATION0-12 (time with AP inhibition 90% or greater), Mean",[5],10.9 h
same,"% AUEC0-12, Mean",[6],98.8%
same,"DURATION0-12 (time with AP inhibition 90% or greater), Mean",[6],11.6 h
same,"% AUEC0-12, Mean",[7],98.2%
same,"DURATION0-12 (time with AP inhibition 90% or greater), Mean",[7],11.3 h
same,average reduction in AP hemolysis,[8],over 95%
same,reduction in AP hemolysis for the duration of the study,[8],over 90%
same,serum AP hemolysis activity,"120 mg single dose fed, from 2 h through 6 h",≤ 10%
same,mean AP activity,"200 mg BID, 0 h to 12 h on Days 7 and 14",below 10%
same,"% AUEC0-12, Mean",[9],99.5%
same,"DURATION0-12 (time with AP inhibition 90% or greater), Mean",[9],11.9 h
same,"% AUEC0-12, Mean",[10],98.8%
same,"DURATION0-12 (time with AP inhibition 90% or greater), Mean",[10],11.5 h
same,"% AUEC0-12, Mean",[11],99.1%
same,"DURATION0-12 (time with AP inhibition 90% or greater), Mean",[11],11.7 h
same,time mean inhibition persisted at 90% or greater post-dose,240 mg single dose,at least 12 hours
same,serum AP hemolysis activity,"240 mg single dose fasted, from 1.5 h through 16 h",≤ 10%
same,"AP inhibition, all subjects","240 mg single dose, within two hours of dosing",≥ 90%
same,minimum AP activity following dosing,"Groups 2 through 4 (80, 120, 200 mg BID)",0.00%
same,inhibition at 40 mg,"Homo sapiens, 0 h, 40 mg BID, Days 6 Through 14, AP hemolysis, read-out: AP Inhibition at 0 hr, Mean",28.7%
same,inhibition at 80 mg,"Homo sapiens, 0 h, 80 mg BID, Days 6 Through 14, AP hemolysis, read-out: AP Inhibition at 0 hr, Mean",74.1%
same,inhibition at 120 mg,"Homo sapiens, 0 h, 120 mg BID, Days 6 Through 14, AP hemolysis, read-out: AP Inhibition at 0 hr, Mean",97.2%
same,inhibition at 200 mg,"Homo sapiens, 0 h, 200 mg BID, Days 6 Through 14, AP hemolysis, read-out: AP Inhibition at 0 hr, Mean",97.6%
same,inhibition at 40 mg,"Homo sapiens, 40 mg BID, Day 7, AP hemolysis, read-out: AP Inhibition at 0 hr, Mean",20%
same,inhibition at 40 mg,"Homo sapiens, 40 mg BID, Day 7, AP hemolysis, read-out: AP Inhibition at 12 hr, Mean",17.5%
same,inhibition at 40 mg,"Homo sapiens, 40 mg BID, Day 14, AP hemolysis, read-out: AP Inhibition at 0 hr, Mean",29.2%
same,inhibition at 40 mg,"Homo sapiens, 40 mg BID, Day 14, AP hemolysis, read-out: AP Inhibition at 12 hr, Mean",29%
same,inhibition at 80 mg,"Homo sapiens, 80 mg BID, Day 7, AP hemolysis, read-out: AP Inhibition at 0 hr, Mean",60.5%
same,inhibition at 80 mg,"Homo sapiens, 80 mg BID, Day 7, AP hemolysis, read-out: AP Inhibition at 12 hr, Mean",61.5%
same,inhibition at 80 mg,"Homo sapiens, 80 mg BID, Day 14, AP hemolysis, read-out: AP Inhibition at 0 hr, Mean",79%
same,inhibition at 80 mg,"Homo sapiens, 80 mg BID, Day 14, AP hemolysis, read-out: AP Inhibition at 12 hr, Mean",52%
same,inhibition at 120 mg,"Homo sapiens, 120 mg BID, AP Hemolysis and AP Wieslab assays, read-out: AP inhibition, mean value at Ctrough",> 90%
same,inhibition at 120 mg,"Homo sapiens, 120 mg BID, Day 7, AP hemolysis, read-out: AP Inhibition at 0 hr, Mean",91.8%
same,inhibition at 120 mg,"Homo sapiens, 120 mg BID, Day 7, AP hemolysis, read-out: AP Inhibition at 12 hr, Mean",86%
same,inhibition at 120 mg,"Homo sapiens, 120 mg BID, Day 14, AP hemolysis, read-out: AP Inhibition at 0 hr, Mean",99.7%
same,inhibition at 120 mg,"Homo sapiens, 120 mg BID, Day 14, AP hemolysis, read-out: AP Inhibition at 12 hr, Mean",89.7%
same,inhibition at 200 mg,"Homo sapiens, 200 mg BID, AP Hemolysis and AP Wieslab assays, read-out: AP inhibition, mean value at Ctrough",> 95%
same,inhibition at 200 mg,"Homo sapiens, 200 mg BID, Day 7, AP hemolysis, read-out: AP Inhibition at 0 hr, Mean",95%
same,inhibition at 200 mg,"Homo sapiens, 200 mg BID, Day 7, AP hemolysis, read-out: AP Inhibition at 12 hr, Mean",97.3%
same,inhibition at 200 mg,"Homo sapiens, 200 mg BID, Day 14, AP hemolysis, read-out: AP Inhibition at 0 hr, Mean",98.8%
same,inhibition at 200 mg,"Homo sapiens, 200 mg BID, Day 14, AP hemolysis, read-out: AP Inhibition at 12 hr, Mean",92.8%
same,inhibition at 40 mg,"Homo sapiens, 12 h, 40 mg BID, Days 6 Through 14, AP hemolysis, read-out: AP Inhibition at 12 hr, Mean",23.3%
same,inhibition at 80 mg,"Homo sapiens, 12 h, 80 mg BID, Days 6 Through 14, AP hemolysis, read-out: AP Inhibition at 12 hr, Mean",56.8%
same,inhibition at 120 mg,"Homo sapiens, 12 h, 120 mg BID, Days 6 Through 14, AP hemolysis, read-out: AP Inhibition at 12 hr, Mean",87.8%
same,inhibition at 200 mg,"Homo sapiens, 12 h, 200 mg BID, Days 6 Through 14, AP hemolysis, read-out: AP Inhibition at 12 hr, Mean",95.1%
same,inhibition at 0.08 µg/mL,"Homo sapiens, at Ctrough of about 80 ng/mL, MAD, ex vivo AP activity assays",~90%
same,inhibition at 0.15 µg/mL,"Homo sapiens, at Ctrough of about 150 ng/mL, MAD, ex vivo AP activity assays",> 95%
same,inhibition at 120 mg,"Homo sapiens, po, steady state Ctrough, oral 120 mg BID, read-out: mean alternative pathway inhibition",> 95%
same,EC50,"Homo sapiens, simple Emax model, multiple-dose cohorts, AP hemolysis",0.0191 µg/mL
same,IC90,"Homo sapiens, sigmoidal model, multiple ascending dose, ex-vivo AP hemolysis, FIG. 12, read-out: modeled IC90 drug plasma concentration (90% inhibition level)",0.088 µg/mL
same,EC50,[12],0.0246 µg/mL
same,EC90,[12],0.0881 µg/mL
same,recovery of AP activity to approximately pre-dose levels,"all doses, three days after the last dose",≤ 17 days
same,potency relative to Danicopan (IC90 plasma concentration),"sigmoidal model, FIG. 12",more than 2.5 times
same,time of recovery of AP hemolysis activity to nearly pre-dose levels,single-dose cohorts 240 mg and 120 mg,≤ 48 h
